From ChEMBL document CHEMBL5550207, “Alkaline Phosphatase Activated Near-Infrared Frequency Upconversion Photosensitizers for Tumor Photodynamic Therapy” (J Med Chem, 2024)
The source made the active and inactive calls. No cut-off for these calls is given here.

Tests used:
[1] = tested on: A549; assay: Phototoxicity in human A549 cells assessed as cell viability at upto 20 uM pre-irradiated with 808nm laser 1.5 W/cm2 for 10 mins and measured after 12 hrs by MTT assay relative to control; format: functional; conditions: time 730 min, 12.17 h, up to 20 µM
[2] = tested on: A549; assay: Phototoxicity in human A549 cells assessed as cell viability at 10 uM pre-irradiated with 808nm laser 1.5 W/cm2 for 10 mins and measured after 12 hrs by MTT assay relative to control; format: functional; conditions: A549, light or radiation study, 12.17 h, time 730 min, read-out: Activity
[3] = tested on: A549; assay: Phototoxicity in human A549 cells assessed as cell viability at 20 uM pre-irradiated with 808nm laser 1.5 W/cm2 for 10 mins and measured after 12 hrs by MTT assay relative to control; format: functional; conditions: A549, light or radiation study, 12.17 h, time 730 min, read-out: Activity
[4] = tested on: A549; assay: Induction of singlet oxygen production in human A549 cells at 10 uM preincubated for 65 mins followed by light irradiation with 808nm laser 1.5 W/cm2 for 10 mins by DCF-DA staining based confocal microscopy analysis; format: functional, cell-based; conditions: time 75.0 min
[5] = tested on: A549; assay: Phototoxicity in human A549 cells assessed as reduction in cell viability at upto 20 uM preincubated for 1 hr followed by light irradiation with 808nm laser 1.5 W/cm2 for 10 mins and measured after 4 hrs by Live/Dead dye staining assay; format: functional, cell-based; conditions: time 310.0 min
[6] = tested on: A549; assay: Induction of apoptosis in human A549 cells under light irradiation with 808nm laser 1.5 W/cm2 for 10 mins by annexin V-FITC/propidium iodide staining based flow cytometry; format: functional, cell-based
[7] = Induction of singlet oxygen production of the compound assessed as decrease in DPBF absorbance under laser irradiation with 808nm laser 1.5 W/cm2 for upto 15 mins in presence of alkaline phosphatase; format: physicochemical; conditions: isolated protein, 0.25 h
[8] = tested on: A549; assay: Photosensitization activity against human A549 cells overexpressing ALP assessed as increase in fluorescence intensity at 10 uM measured upto 60 mins by confocal fluorescent imaging based analysis; format: functional, cell-based
[9] = tested on: A549; assay: Photosensitization activity against human A549 cells overexpressing ALP assessed as increase in fluorescence intensity at 10 uM pretreated with Na3VO4 for 1 hr followed by compound addition and measured upto 60 mins by confocal fluorescent imaging based analysis; format: functional, cell-based; conditions: time <= 60.0 […]
[10] = tested on: L02; assay: Photosensitization activity against human L02 cells overexpressing ALP assessed as increase in fluorescence intensity at 10 uM pretreated with MgCl2 for 1 hr followed by compound addition by confocal fluorescent imaging based analysis; format: functional, cell-based
[11] = Cytotoxicity against human L02 cells assessed as survival rate measured after 12 hrs by MTT assay relative to control; format: toxicity, cell-based; conditions: read-out: Survival
[12] = tested on: A549; assay: Cytotoxicity against human A549 cells assessed as survival rate measured after 12 hrs relative to control; format: functional
[13] = tested on: HeLa; assay: Cytotoxicity against human HeLa cells assessed as survival rate measured after 12 hrs relative to control; format: functional
[14] = tested on: A549; assay: Phototoxicity in human A549 cells assessed as decrease in survival rate at upto 10 uM pre-irradiated with 808nm laser 1.5 W/cm2 for 10 mins and measured after 12 hrs by MTT assay; format: functional, cell-based; conditions: time 730.0 min
[15] = tested on: HeLa; assay: Phototoxicity in human HeLa cells assessed as decrease in survival rate at upto 10 uM pre-irradiated with 808nm laser 1.5 W/cm2 for 10 mins and measured after 12 hrs by MTT assay; format: functional, cell-based; conditions: time 730.0 min
[16] = tested on: A549; assay: Phototoxicity in human A549 cells assessed as decrease in survival rate at 10 uM pre-irradiated with 808nm laser 1.5 W/cm2 for 10 mins and measured after 12 hrs by MTT assay relative to control; format: functional; conditions: A549, light or radiation study, 12.17 h, time 730 min, read-out: Survival
[17] = tested on: HeLa; assay: Phototoxicity in human HeLa cells assessed as decrease in survival rate at 10 uM pre-irradiated with 808nm laser 1.5 W/cm2 for 10 mins and measured after 12 hrs by MTT assay relative to control; format: functional; conditions: light or radiation study, 12.17 h, time 730 min, read-out: Survival
[18] = tested on: A549; assay: Induction of singlet oxygen production in human A549 cells assessed as increase in fluorescent signal at 10 uM preincubated for 65 mins followed by light irradiation with 808nm laser 1.5 W/cm2 for 10 mins in presence of Na3VO4 by DCF-DA staining based confocal microscopy analysis; format: functional, cell-based; conditions: time 75.0 min
[19] = tested on: A549; assay: Phototoxicity in human A549 cells assessed as reduction in cell viability at 10 uM preincubated for 1 hr followed by light irradiation with 808nm laser 1.5 W/cm2 for 10 mins and measured after 4 hrs in presence of Na3VO4 by Live/Dead dye staining assay; format: functional, cell-based; conditions: time 310.0 min
[20] = tested on: A549; assay: Antimigratory activity against human A549 cells measured upto 18 hrs by wound healing assay; format: functional, cell-based
[21] = tested on: A549; assay: Antitumor activity against human A549 cells xenografted in BALB/c mouse model assessed as decrease in fluorescence signal at 300 uM, iv measured upto 120 mins; format: functional, organism-based
[22] = tested on: A549; assay: Antitumor activity against human A549 cells xenografted in BALB/c mouse model assessed as reduction in fluorescence in heart at 300 uM, iv measured after 120 mins; format: functional, organism-based
[23] = tested on: A549; assay: Antitumor activity against human A549 cells xenografted in BALB/c mouse model assessed as reduction in fluorescence in liver at 300 uM, iv measured after 120 mins; format: functional, organism-based
[24] = tested on: A549; assay: Antitumor activity against human A549 cells xenografted in BALB/c mouse model assessed as reduction in fluorescence in spleen at 300 uM, iv measured after 120 mins; format: functional, organism-based
[25] = tested on: A549; assay: Antitumor activity against human A549 cells xenografted in BALB/c mouse model assessed as reduction in fluorescence in kidney at 300 uM, iv measured after 120 mins; format: functional, organism-based
[26] = tested on: A549; assay: Antitumor activity against human A549 cells xenografted in BALB/c mouse model assessed as reduction in fluorescence in lung at 300 uM, iv measured after 120 mins; format: functional, organism-based
[27] = tested on: A549; assay: Antitumor activity against human A549 cells xenografted in BALB/c mouse model assessed as inhibition of tumor growth at 300 uM, iv pre-irradiated with 808nm laser 1.5 W/cm2 for 10 mins and measured daily for 14 days; format: functional, organism-based; conditions: time 14.0 day
[28] = Toxicity in BALB/c mouse assessed as effect on heart at 300 uM, iv pre-irradiated with 808nm laser 1.5 W/cm2 for 10 mins and measured after 14 days by H and E staining based analysis; format: organism-based; conditions: in vivo, 336 h, time 14 day
[29] = Toxicity in BALB/c mouse assessed as effect on liver at 300 uM, iv pre-irradiated with 808nm laser 1.5 W/cm2 for 10 mins and measured after 14 days by H and E staining based analysis; format: organism-based; conditions: in vivo, 336 h, time 14 day
[30] = Toxicity in BALB/c mouse assessed as effect on spleen at 300 uM, iv pre-irradiated with 808nm laser 1.5 W/cm2 for 10 mins and measured after 14 days by H and E staining based analysis; format: organism-based; conditions: in vivo, 336 h, time 14 day
[31] = Toxicity in BALB/c mouse assessed as effect on lung at 300 uM, iv pre-irradiated with 808nm laser 1.5 W/cm2 for 10 mins and measured after 14 days by H and E staining based analysis; format: organism-based; conditions: in vivo, 336 h, time 14 day
[32] = Toxicity in BALB/c mouse assessed as effect on kidney at 300 uM, iv pre-irradiated with 808nm laser 1.5 W/cm2 for 10 mins and measured after 14 days by H and E staining based analysis; format: organism-based; conditions: in vivo, 336 h, time 14 day
[33] = Toxicity in BALB/c mouse assessed as effect on tumor at 300 uM, iv pre-irradiated with 808nm laser 1.5 W/cm2 for 10 mins and measured after 14 days by H and E staining based analysis; format: organism-based; conditions: in vivo, 336 h, time 14 day
[34] = Toxicity in BALB/c mouse assessed as effect on body weight loss at 300 uM, iv pre-irradiated with 808nm laser 1.5 W/cm2 for 10 mins and measured after 14 days by H and E staining based analysis; format: organism-based; conditions: in vivo, 336 h, time 14 day

With `CC[N+]1=C(/C=C/C2=C3Oc4cc(O)ccc4C=C3CCC2)C(C)(C)c2ccccc21.[I-]` the Activity [1] was over 85%.

For `CC[N+]1=C(/C=C/C2=C3Oc4cc(O)c(Br)cc4C=C3CCC2)C(C)(C)c2cc(Br)ccc21`, the viability at 10 µM [2] was 40%, the viability at 20 µM [3] was under 20% and the Activity [4] was “Active”. The Activity [5] was “Active” and the Activity [6] was “Active”.

`CC[N+]1=C(/C=C/C2=C3Oc4cc(O)c(Br)cc4C=C3CCC2)C(C)(C)c2ccccc21.[I-]` gave an Activity [1] of over 85%.

With `CC[N+]1=C(/C=C/C2=C3Oc4cc(OP(=O)(O)O)c(Br)cc4C=C3CCC2)C(C)(C)c2cc(Br)ccc21.[I-]` the Activity [4] was “Active”, the Activity [6] was “Active” and the Activity [7] was “Active”. For the same compound, the Activity [8] was “Active”, the Activity [9] was “inactive” and the Activity [10] was “Active”. The viability at 12 h [11] was over 85%, the Survival [12] was over 85% and the Survival [13] was over 85%. The Activity [14] was “Active”, the Activity [15] was “Active” and the viability at 10 µM [16] was under 40%. The viability at 10 µM [17] was under 40%, the Activity [18] was “inactive” and the Activity [19] was “Active”. The Activity [20] was “inactive”, the Activity [21] was “inactive” and the Activity [22] was “Active”. The Activity [23] was “Active”, the Activity [24] was “Active” and the Activity [25] was “Active”. For the same compound, the Activity [26] was “Active”, the AC30 [27] was “Active” and the Activity [28] was “Non-Toxic”. For the same compound, the Activity [29] was “Non-Toxic”, the Activity [30] was “Non-Toxic” and the Activity [31] was “Non-Toxic”. The Activity [32] was “Non-Toxic”, the Activity [33] was “Non-Toxic” and the Activity [34] was “Non-Toxic”.

`CC[N+]1=C(/C=C/C2=C3Oc4cc(O)ccc4C=C3CCC2)C(C)(C)c2cc(Br)ccc21.[I-]` showed an Activity [1] of over 85%.
